Columns and labels:
[1] = system: apolipoprotein E-deficient (ApoE −/−) mice; assay: MGD model in ApoE −/− mice: tear volume and meibomian gland size; assay type: in vivo, mouse; settings: Roxa 10 mg/kg subcutaneous, three times per week for 12 weeks
Procedure: Two groups of ApoE KO mice (vehicle-treated ApoE −/−, as control, and Roxa-treated ApoE −/−), as well as wild-type C57BL/6J mice, were measured for weight, tear volume, corneal fluorescein staining and tear breakup time (TBUT). ApoE −/− mice were randomly divided into 2 groups (n=8 mice/group): control and Roxa-treated. The ApoE−/− mice were treated with vehicle control (2% DMSO in sterile saline, subcutaneous injection) or Roxa (10 mg/kg, subcutaneous injection). The injections were administrated three times/week; on Monday, Wednesday, and Friday mornings; for 12 weeks. At the end of the study, the weight, tear volume, corneal fluorescein staining and tear breakup time (TBUT) were weighted again for comparison. The bar chart in FIG. 6 compares mean tear volume of each group of mice after treatment.
After the Roxa treatment, as described in FIG. 6, the eyelids of each mouse were dissected to assess meibomian gland size and morphology. […]
At the beginning of the study, the 16 ApoE−/− mice and 4 wild-type (WT) C57BL/6J mice, 12 weeks of age, were measured for their weight, tear volume, corneal fluorescein staining and tear breakup time (TBUT). […] At the end of the study, the weight, tear volume, corneal fluorescein staining and tear breakup time (TBUT) were measured again. […]

[2] = Percentage of weight gain in ApoE −/− mice; assay type: in vivo, mouse; settings: Roxa 10 mg/kg subcutaneous, three times per week for 12 weeks, vs vehicle, p<0.05
Procedure: The whole blood samples of mice were collected by cardiac puncture after sacrificing. The blood samples were allowed to clot by leaving it undisturbed at room temperature for 15 minutes. The clot was removed by centrifuging at 1,000-2,000×g for 10 minutes in a refrigerated centrifuge. The resulting supernatant was designated serum. Then the cholesterol level in the serum was evaluated by using a commercially available cholesterol fluorometric assay kit (#10007640, Cayman Chemical, Mich.). The weight of each mice was measured before and after the experiment. The percentage of weight gain was compared between the Roxa-treated mice and the vehicle-treated mice.
At the beginning of the study, the 16 ApoE−/− mice and 4 wild-type (WT) C57BL/6J mice, 12 weeks of age, were measured for their weight, tear volume, corneal fluorescein staining and tear breakup time (TBUT). The ApoE −/− mice were randomly divide into 2 groups (n=8 mice/group) and treated with vehicle control (2% DMSO in sterile saline, subcutaneous injection) or Roxa (10 mg/kg, subcutaneous injection). The injections were administrated three times per week (on Monday, Wednesday, and Friday mornings) for 12 weeks. […] At the end of the study, the weight, tear volume, corneal fluorescein staining and tear breakup time (TBUT) were measured again. […]

MG cells = assay: Staining of dissected mouse eyelids for MG cell differentiation markers; assay type: in vivo; settings: eyelids of Roxa-treated ApoE −/− mice
Text: The mice eyelids were collected and dissected after sacrificing. The dissected samples were stained with different antibodies and dyes for lipids. For example, the dissected mice lid samples were stained with Oil Red O and LipidTox™ (Invitrogen) for evaluation of lipid accumulation. The sections were stained for pimonidazole, DNase II, HIF1α, PPARγ, Desmoglein and Desmocollin for the evaluation of cell differentiation and maturation. […] These markers include intracellular lipid accumulation, as well as expression of peroxisome proliferator-activated receptor gamma (PPAR-γ), Desmoglein and Desmocollin in MG cells.

## Cc1nc(C(=O)NCC(=O)O)c(O)c2ccc(Oc3ccccc3)cc12 [Roxa, roxadustat]
[1]; vs control group and WT mice, p<0.01
  tear volume: significantly increased
[1]; vs control group, p<0.05
  meibomian gland loss in the mice eyelids (MG area): significantly reduced
[2]
  percentage of weight gain: significantly reduced
MG cells
  expression of Desmocollin in MG cells: promoted expression
  expression of Desmoglein in MG cells: promoted expression
  expression of peroxisome proliferator-activated receptor gamma (PPAR-γ) in MG cells: promoted expression
  intracellular lipid accumulation in MG cells (differentiation marker): promoted expression

Reference: patent publication US20220347167A1, “A NEW TREATMENT FOR MEIBOMIAN GLAND DYSFUNCTION” (The Schepens Eye Research Institute, Inc., priority 2019, published 2022)
